Reference: PMC4894032 (European journal of medicinal chemistry, 2016)

Test system: carrageenan-induced mouse paw edema
Test: Carrageenan-induced paw edema
Type: in vivo, mouse (female C57BL/6J)
Settings: carrageenan-induced mouse paw inflammation; IIn treated

CN(Cc1ccccn1)Cc1cccc(CN(C)Cc2ccccn2)n1 [IIn, N,N′-(Pyridine-2,6-diylbis(methylene))bis(N-methyl-1-(pyridin-2-yl)methanamine)]
Histological analysis of paw tissue (H&E): significantly attenuated the mouse paw inflammation and damage
